Assay results as given in patent US6949654B2, “N-alkyl-N-phenylhydroxylamine compounds containing metal chelating groups, their preparation and their therapeutic uses” (Sam-Sung Electronics Co., Ltd., priority 2001, dated 2005).

Key:
[1] = tested on: soybean phosphatidylcholine liposome; test: Inhibition of lipid peroxidation of a multilayer liposome (TBA method); type: biochemical; details: lipid peroxidation of liposome started with FeCl2, 37° C. 15 minutes, absorbance at 532 nm; read-out: Inhibitor Concentration (IC50)
Method: The compounds of the present invention were tested for antioxidant effect in terms of the repression of the radical chain reaction of a multilayer liposome.
The liposome was prepared as followings: 30 mg of commercially available soybean phosphatidylcholine (PC, Sigma Chemical Co., U.S.A.) was dissolved in 1 mL of ethanol, and 200 μL of the ethanol/PC solution was added to 10 mL of 10 mM Tris buffer including 50 mM NaCl (pH 7.0) with stirring.
The ability of a compound to inhibit oxidation of the liposome was evaluated as followings: To 400 μL of the liposomes were added the test compound (in buffer or ethanol) and histidine-FeCl3 (167:33 μM final). Oxidation was initiated by the addition of FeCl2 (33 μM final prepared in nitrogen purged water). The mixtures was shaken at 37° C. for 15 minutes. Thereafter, tubes were treated with 1 mL of 0.67% thiobabituric acid (TBA):10% trichloroacetic acid (2:1, v/v) in 0.25 N HCl solution, containing 1.5% (v/v) t-butylhydroxytoluene (BHT) to terminate oxidation. The aliquots were heated to 100° C. for 20 minutes. After ice cooling, 1 mL of chloroform was added to 1 mL supernatant from tubes and tubes were centrifuged. The absorbances of the resulting supernatant were measured at 532 nm (see: Table 1 below).

[2] = tested on: ischemic neuronal degeneration; test: Protection of cell damage by ischemia (in vivo); parameters: species or system Mongolian gerbils (Meriones unguiculatus); details: 60 mg/kg P.O. 30 minutes after ischemic injury (post-treated), 5 min carotid occlusion, 4 days reperfusion, hippocampus
Method: Male Mongolian gerbils (Meriones unguiculatus) weighing 80-88 g were used in the present study. Each animal was medicated P.O. with vehicle, Ebselen or various test compounds (60 mg/kg in 10% DMSO), after 30 minutes ischemic injury, respectively. 20 animals were allotted into every group. The animals were placed under general anesthesia with a mixture of 2.5% isoflurane in 33% oxygen and 67% nitrous oxide. A midline ventral incision was made in the neck. Both common carotid arteries were isolated, freed of nerve fibers, and occluded using nontraumatic aneurysm clips. Complete interruption of blood flow was confirmed by observing the central artery in eyeballs using ophthalmoscope. After five minutes of occlusion, the aneurysm clips were removed from both common carotid arteries. Restoration of blood flow (reperfusion) was observed directly under the microscope. Sham-operated controls were subjected to the same surgical procedures except that common carotid arteries were not occluded. Body temperature was monitored and maintained at 37° C.±0.5° C. during surgery and during the immediate postoperative period until the animals recovered fully from anesthesia. […]
Images of staining in the hippocampus of each animal were captured with an Applescanner. […] All data obtained from the quantitative data were analyzed using one-way ANOVA to determine statistical significance. […]

rats = details: oral administration; cited from earlier work
mice = details: oral administration; cited from earlier work
[3] = even in the presence of an excess of glutathione (GSH); cited from earlier work
[4] = Acute toxicity LD50 in rats; details: rat, in vivo

Compound | IC50 [1] [µM] | protective effect against ischemic neuronal degeneration [2] [%] | further results
O=c1c2ccccc2[se]n1-c1ccccc1 [Ebselen] |  | 59 | LD50 (rats): ≥ 6,810 mg/kg; LD50 (mice): ≥ 6,810 mg/kg; solubility in water [3]: very little soluble in water
CC(C)(C)N(O)c1ccc(C(=O)Nc2nccs2)cc1 [Example 1, 4-[N-(tert-butyl)-N-hydroxyamino]-N-thiazol-2-yl-benzamide] | 1.44 | 81 | LD50 ([4]; ip, intraperitoneal administration in rats): ≥ 750 mg/kg; LD50 ([4]; oral administration in rats): ≥ 7000 mg/kg
CC(C)(C)N(O)c1ccc(C(=O)Nc2ccccn2)cc1 [Example 2, 4-[N-(tert-butyl)-N-hydroxyamino]-N-pyridin-2-yl-benzamide] | 4.3 |  | 

Now from value to compound, other results behind:

IC50 [1] [µM] | Compound | protective effect against ischemic neuronal degeneration [2] [%] | further results
11.1 | 4-[N-(tert-butyl)-N-hydroxyamino]-N-pyridin-2-yl-methyl-benzamide [Example 3] |  | 
61.9 | CC(C)(C)N(O)c1ccc(C(=O)Nc2ccc(O)c3ncccc23)cc1 [Example 4, 4-[N-(tert-butyl)-N-hydroxyamino]-N-(8-hydroxyquinolin-5-yl)-benzamide] |  | 
10.2 | Cc1c(C)c2c(c(C)c1O)CCC(C)(C(=O)O)O2 (stereo not drawn) [Trolox, reference compound] |  | 
